Measured values from patent US10899754B2, “Modulators of indoleamine 2,3-dioxygenase” (GLAXOSMITHKLINE INTELLECTUAL PROPERTY DEVELOPMENT LIMITED, priority 2016, dated 2021).

Columns and labels:
Assay type in all cases: cell-based
[1] = target: T1, indoleamine 2, 3-dioxygenase (IDO1) (Homo sapiens, UniProt P14902); assay: IDO1 HeLa RapidFire MS assay (kynurenine detection by mass spectrometry); parameters: to induce the expression of indoleamine 2, 3-dioxygenase (IDO1); settings: HeLa cells, pIC50, read-out: IDO1_HELA_PXC50 (converted)
T1 sequence (P14902 whole entry): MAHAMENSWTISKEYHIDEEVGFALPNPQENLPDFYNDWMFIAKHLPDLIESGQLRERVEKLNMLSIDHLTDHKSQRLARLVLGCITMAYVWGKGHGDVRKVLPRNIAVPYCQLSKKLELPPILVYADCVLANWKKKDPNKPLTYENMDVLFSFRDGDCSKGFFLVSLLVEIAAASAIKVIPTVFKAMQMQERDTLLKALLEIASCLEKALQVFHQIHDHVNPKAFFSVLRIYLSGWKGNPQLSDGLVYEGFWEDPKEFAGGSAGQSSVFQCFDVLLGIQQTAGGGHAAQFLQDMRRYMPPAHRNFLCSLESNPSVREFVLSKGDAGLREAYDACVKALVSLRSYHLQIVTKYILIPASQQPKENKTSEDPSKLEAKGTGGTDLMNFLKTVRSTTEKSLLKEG
Outline: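 Compound potency reported as pIC50 from kynurenine/internal-standard ratio (RapidFire MS) in supernatant of IFN-γ-induced (10 nM) HeLa cells, 5,000 per well, after 2 days' treatment with 11-point dilutions. Cytotoxicity in the same format by luminescent ATP detection, reported as pCC50.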

[2] = target: T1, indoleamine 2, 3-dioxygenase (IDO1); assay: IDO1 PBMC RapidFire MS assay (kynurenine detection by mass spectrometry); parameters: to induce the expression of indoleamine 2, 3-dioxygenase (IDO1); host or cells: human PBMC stimulated with IFN-gamma and LPS; settings: human PBMC stimulated with IFN-γ and LPS, 2 days, pIC50, read-out: PBMC PXC50 (converted)
Outline: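 Kynurenine output, read by RapidFire mass spectrometry as ratio to an internal standard, was measured after 2-day compound exposure (11-point, 3-fold dilutions) of human PBMCs induced with 100 ng/ml IFN-γ and 50 ng/ml LPS. Cell viability tracked alongside via ATP luminescence; XC50 from curve fitting.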

[3] = test system: human epithelial HeLa cells; assay: HeLa cytotoxicity assay (CellTiter-Glo); settings: pCC50
Outline: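 Read-out is CellTiter-Glo luminescence after 2 days at 37 °C, on IFN-γ-stimulated (10 nM) HeLa cells seeded at 5,000/well with compounds in 11-point 3-fold dose series. pCC50 from four-parameter curve fit; wells without cells set 100% cytotoxicity, stimulated cells with DMSO set 0%.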

[4] = test system: human peripheral blood mononuclear cells (PBMC); assay: PBMC cytotoxicity assay (CellTiter-Glo); settings: 2 days, pCC50
Outline: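 % cytotoxicity was taken from CellTiter-Glo luminescence, using wells without cells and stimulated DMSO wells as references, and fitted by four-parameter curve to give XC50. Cells were human PBMC at 50,000 per well, activated with 100 ng/ml IFN-γ plus 50 ng/ml LPS. Incubation with 11-point, 3-fold dilution series ran for 2 days at 37 °C.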

SMILES	IC50 [1]	IC50 [2]	HELA_IDO1_TOX_PXC50 [3]	PBMC TOX PXC50 [4]
CC[C@@H](CC(=O)O)c1ccc(N(CC(C)C)C2CCCCC2)c(Nc2nc(Cl)ns2)c1 [example 166, (3S)-3-{3-[(3-chloro-1,2,4-thiadiazol-5-yl)amino]-4-[cyclohexyl(2-methylpropyl)amino]phenyl}pentanoic acid]	0.01 µM	0.000316 µM	<5	5.1
COc1ncc(Nc2cc([C@H](C)CC(=O)O)ccc2N(CC(C)C)C2CCOCC2)cn1 [Example 15, (R)-3-(4-(isobutyl(tetrahydro-2H-pyran-4-yl)amino)-3-((2-methoxypyrimidin-5-yl)amino)phenyl)butanoic Acid]	0.00794 µM	0.00316 µM	<5	<5
CC(C)CN(c1ccc([C@H](C)CC(=O)O)cc1Nc1cnc(Cl)cn1)[C@H]1CC[C@H](O)CC1 [Example 45, (R)-3-(3-((5-chloropyrazin-2-yl)amino)-4-(((1r,4R)-4-hydroxycyclohexyl) (isobutyl)amino)phenyl)butanoic Acid]	0.00398 µM	0.00126 µM	<5	<5
CC(C)CN(c1ccc(C(C)OCC(=O)O)cc1Nc1nc(Cl)ns1)C1CCCCC1 (centres unmarked) [example 171, 2-(1-{3-[(3-chloro-1,2,4-thiadiazol-5-yl)amino]-4-[cyclohexyl(2-methylpropyl)amino]phenyl}ethoxy)acetic acid]	0.158 µM	0.0251 µM	<5	<5
Cc1nc(C)c(Nc2cc(C(C)CC(=O)O)ccc2N(CC(C)C)CC(C)C)s1 (centres unmarked) [example 139, 3-{4-[bis(2-methylpropyl)amino]-3-[(2,4-dimethyl-1,3-thiazol-5-yl)amino]phenyl}butanoic acid]	> 10 µM	> 10 µM	<5	<5
CC(C)CN(c1ccc(C(C)CC(=O)O)cc1NC1=NC(=O)[C@@H](C)N1)C1CCCCC1 (stereo partly drawn) [example 163, 3-{4-[cyclohexyl(2-methylpropyl)amino]-3-{[(5R)-5-methyl-4-oxo-4,5-dihydro-1H-imidazol-2-yl]amino}phenyl}butanoic acid]	2 µM	3.16 µM	<5	<5
CC(C)CN(c1ccc(C(C)(C)CC(=O)O)cc1Nc1nc(Cl)ns1)C1CCCCC1 [Example 2, 3-(3-((3-chloro-1,2,4-thiadiazol-5-yl)amino)-4-(cyclohexyl(isobutyl)amino)phenyl)-3-methylbutanoic Acid]	0.00794 µM	0.00158 µM	<5	<5
CC(C)CN(c1ccc([C@H](C)CC(=O)O)cc1Nc1ccc(Cl)nn1)[C@H]1CC[C@H](O)CC1 [Example 57, (R)-3-(3-((6-chloropyridazin-3-yl)amino)-4-(((1r,4R)-4-hydroxycyclohexyl) (isobutyl)amino)phenyl)butanoic Acid]	0.00794 µM	0.00501 µM	<5	<5
CC(C)CN(c1ccc(C(C)OCC(=O)O)cc1Nc1nc2ccccc2o1)C1CCCCC1 (centres unmarked) [example 170, 2-(1-{3-[(1,3-benzoxazol-2-yl)amino]-4-[cyclohexyl(2-methylpropyl)amino]phenyl}ethoxy)acetic acid]	0.501 µM	0.316 µM	<5	<5
CC(C)CN(c1ccc([C@H](C)CC(=O)O)cc1NC1CCC1)C1CCCCC1 [example 181, (3R)-3-[3-(cyclobutylamino)-4-[cyclohexyl(2-methylpropyl)amino]phenyl]butanoic acid]	0.316 µM	0.158 µM	<5	<5
CC(C)CN(c1ccc(C(C)CC(=O)O)cc1NCc1ncccn1)C1CCCCC1 (centres unmarked) [example 160, 3-{4-[cyclohexyl(2-methylpropyl)amino]-3-{[(pyrimidin-2-yl)methyl]amino}phenyl} butanoic acid]	> 10 µM	> 10 µM	<5	<5
CC(C)CN(c1ccc([C@H](C)CC(=O)O)cc1Nc1ccc(Cl)cn1)C1CCCCC1 [Example 75, (R)-3-(3-((5-chloropyridin-2-yl)amino)-4-(cyclohexyl(isobutyl)amino)phenyl)butanoic Acid]	0.00316 µM	0.00158 µM	<5	<5
COCCN(c1ccc(-c2ccccc2C(=O)O)cc1Nc1nc2ccccc2o1)C1CCCCC1 [example 284, 3′-[(1,3-benzoxazol-2-yl)amino]-4′-[cyclohexyl(2-methoxyethyl)amino]-[1,1′-biphenyl]-2-carboxylic acid]	0.398 µM	0.2 µM	<5	<5

Continued, in another order:

IC50 [1]	IC50 [2]	SMILES	HELA_IDO1_TOX_PXC50 [3]	PBMC TOX PXC50 [4]
0.0251 µM	0.00501 µM	CC(C)CN(c1ccc(C(C)(C)CC(=O)O)cc1Nc1nc(Cl)ns1)C1CCOCC1 [Example 5, 3-(3-((3-chloro-1,2,4-thiadiazol-5-yl)amino)-4-(isobutyl(tetrahydro-2H-pyran-4-yl)amino)phenyl)-3-methylbutanoic Acid]	<5	<5
0.02 µM	0.01 µM	COCc1ccc(Nc2cc([C@H](C)CC(=O)O)ccc2N(CC(C)C)C2CCOCC2)cn1 [Example 31, (R)-3-(4-(isobutyl(tetrahydro-2H-pyran-4-yl)amino)-3-((6-(methoxymethyl)pyridin-3-yl)amino)phenyl)butanoic Acid]	5	<5
0.0316 µM	0.00251 µM	CC(C)CN(c1ccc(C(C)CC(=O)O)cc1Nc1nc(Cl)ns1)C1CCOCC1 (centres unmarked) [Example 21, 3-(3-((3-chloro-1,2,4-thiadiazol-5-yl)amino)-4-(isobutyl(tetrahydro-2H-pyran-4-yl)amino)phenyl)butanoic Acid]	<5	5.2
0.126 µM	0.0501 µM	CC(C)CN(c1ccc(-c2cccnc2C(=O)O)cc1Nc1nc2ccccc2o1)C1CCCCC1 [example 290, 3-{3-[(1,3-benzoxazol-2-yl)amino]-4-[cyclohexyl(2-methylpropyl)amino]phenyl}pyridine-2-carboxylic acid]	<5	<5
0.0398 µM	0.02 µM	CC(C)CN(CC(C)C)c1ccc(-c2ccccc2C(=O)O)cc1Nc1nc(Cl)ns1 [example 294, 4′-[bis(2-methylpropyl)amino]-3′-[(3-chloro-1,2,4-thiadiazol-5-yl)amino]-[1,1′-biphenyl]-2-carboxylic acid]	<5	<5
0.316 µM	0.1 µM	CC(C)CN(CC(C)C)c1ccc(-c2ccccc2C(=O)O)cc1Nc1nc(C2CC2)ns1 [example 288, 4′-[bis(2-methylpropyl)amino]-3′-[(3-cyclopropyl-1,2,4-thiadiazol-5-yl)amino]-[1,1′-biphenyl]-2-carboxylic acid]	<5	<5
0.0251 µM	0.02 µM	CC(C)CN(c1ccc([C@H](C)CC(=O)O)cc1Nc1nc(C2CC2)cs1)C1CCOCC1 [example 211, (3R)-3-{3-[(4-cyclopropyl-1,3-thiazol-2-yl)amino]-4-[(2-methylpropyl)(oxan-4-yl)amino]phenyl}butanoic acid]	<5	<5
0.00316 µM	0.00158 µM	CC(C)CN(c1ccc(-c2ccccc2C(=O)O)cc1Nc1nc(C(F)(F)F)ns1)C1CCOCC1 [Example 103, 4′-(isobutyl(tetrahydro-2H-pyran-4-yl)amino)-3′-((3-(trifluoromethyl)-1,2,4-thiadiazol-5-yl)amino)-[1,1′-biphenyl]-2-carboxylic Acid]	<5	<5
0.00316 µM	0.00158 µM	CC(C)CN(c1ccc(C(C)CC(=O)O)cc1Nc1nc(C(F)(F)F)ns1)C1CCOCC1 (centres unmarked) [example 202, 3-{4-[(2-methylpropyl)(oxan-4-yl)amino]-3-{[3-(trifluoromethyl)-1,2,4-thiadiazol-5-yl]amino}phenyl}butanoic acid]	<5	<5
0.0126 µM	0.0126 µM	CC(C)CN(CC(C)C)c1ccc(C2CC2C(=O)O)cc1Nc1nc(C(F)(F)F)ns1 (centres unmarked) [example 174, 2-{4-[bis(2-methylpropyl)amino]-3-{[3-(trifluoromethyl)-1,2,4-thiadiazol-5-yl]amino}phenyl}cyclo-propane-1-carboxylic acid]	<5	<5
